# Measurements taken from patent US12146004B2, “Polymyxin compounds and uses thereof” (priority 2014, dated 2024).
# Numbered stars: 1 amine (or outer) side, 2 acyl side, 3 side chain; on linkers, the order of the positions; unused ones are H or OH. Bridge positions count the residues as written; N and C are the ends. Square brackets hold non-standard residues; d marks the D form. Peptide text beside a SMILES is read from it. * marks the point of attachment. ξ: configuration not given here. X5 = CCCCCCCCc1ccc(C[C@@H](N[*:1])C(=O)[*:2])cc1; dCha = N[C@H](CC1CCCCC1)C(=O)O; Thr(3ξ) = CC(O)[C@H](N)C(=O)O; X28 = NCCC(C(=O)*)c1ccccc1Cl; X4 = CC(C)CC1CNCC(C(=O)*)C1; X15 = NCCC(CC1CCCC1)C(=O)*; Dab = NCC[C@H](N)C(=O)O; Dap = NC[C@H](N)C(=O)O
# Columns and labels:
# Type in all cases: cell-based
# Acinetobacter baumannii = system: Acinetobacter baumannii
# Procedure, shortened: (§1)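 In vitro susceptibility was determined across up to nine strains of each pathogen, some resistant. Potency is given as MIC, μg/mL.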
# Klebsiella pneumoniae = system: Klebsiella pneumoniae
# Procedure, shortened: as §1
# Escherichia coli = system: Escherichia coli
# Procedure, shortened: as §1
# Pseudomonas aeruginosa = system: Pseudomonas aeruginosa
# Procedure, shortened: as §1
smiles,measurement,setting,value
"CC(C)C[C@@H]1NC(=O)[C@@H](CC2CCCCC2)NC(=O)[C@H](CCN)NC(=O)[C@@H](NC(=O)[C@H](CN)NC(=O)[C@@H](NC(=O)C(CCN)Cc2cccc(F)c2)C(C)O)CCNC(=O)[C@H]([C@@H](C)O)NC(=O)[C@H](CCN)NC(=O)[C@H](CCN)NC1=O (single isomer, unassigned; isomer 2) [Example 45, 4-amino-2-(3-fluorobenzyl) butanoyl L-Thr-L-Dap-polymyxin [D-cyclohexylalanine]-6 heptapeptide. isomer 2]",MIC A. baumanii 053,Acinetobacter baumannii,64 µg/mL
same,MIC A. baumanii 056,Acinetobacter baumannii,64 µg/mL
same,MIC A. baumanii ATCC BAA-747,Acinetobacter baumannii,0.25 µg/mL
same,MIC A. baumanii NCTC 13424,Acinetobacter baumannii,0.25 µg/mL
same,MIC K. pneumoniae 063,Klebsiella pneumoniae,16 µg/mL
same,MIC K. pneumoniae 065,Klebsiella pneumoniae,1 µg/mL
same,MIC K. pneumoniae ATCC 13882,Klebsiella pneumoniae,0.25 µg/mL
same,MIC E. coli 058,Escherichia coli,4 µg/mL
same,MIC E. coli 061,Escherichia coli,16 µg/mL
same,MIC E. coli ATCC 25922,Escherichia coli,0.25 µg/mL
same,MIC E. coli NCTC 9001,Escherichia coli,0.06 µg/mL
same,MIC P. aeruginosa 068,Pseudomonas aeruginosa,1 µg/mL
same,MIC P. aeruginosa 070,Pseudomonas aeruginosa,1 µg/mL
same,MIC P. aeruginosa ATCC 27853,Pseudomonas aeruginosa,0.125 µg/mL
same,MIC P. aeruginosa CCUG 59347,Pseudomonas aeruginosa,0.25 µg/mL
"CC(C)C[C@@H]1NC(=O)[C@@H](CC2CCCCC2)NC(=O)[C@H](CCN)NC(=O)[C@@H](NC(=O)[C@H](CCN)NC(=O)[C@@H](NC(=O)C(CCN)c2cccs2)[C@@H](C)O)CCNC(=O)[C@H]([C@@H](C)O)NC(=O)[C@H](CCN)NC(=O)[C@H](CCN)NC1=O (single isomer, unassigned; isomer 2) [Example 70, 4-amino-2-(thiophen-2-yl)butanoyl polymyxin [D-cyclohexylalanine]-6 nonapeptide isomer 2]",MIC A. baumanii 053,Acinetobacter baumannii,32 µg/mL
same,MIC A. baumanii 056,Acinetobacter baumannii,16 µg/mL
same,MIC A. baumanii ATCC BAA-747,Acinetobacter baumannii,0.25 µg/mL
same,MIC A. baumanii NCTC 13424,Acinetobacter baumannii,0.25 µg/mL
same,MIC K. pneumoniae 063,Klebsiella pneumoniae,64 µg/mL
same,MIC K. pneumoniae 065,Klebsiella pneumoniae,8 µg/mL
same,MIC K. pneumoniae ATCC 13882,Klebsiella pneumoniae,0.125 µg/mL
same,MIC E. coli 058,Escherichia coli,8 µg/mL
same,MIC E. coli 061,Escherichia coli,32 µg/mL
same,MIC E. coli ATCC 25922,Escherichia coli,0.125 µg/mL
same,MIC P. aeruginosa 068,Pseudomonas aeruginosa,8 µg/mL
same,MIC P. aeruginosa 070,Pseudomonas aeruginosa,32 µg/mL
same,MIC P. aeruginosa ATCC 27853,Pseudomonas aeruginosa,0.25 µg/mL
same,MIC P. aeruginosa CCUG 59347,Pseudomonas aeruginosa,0.5 µg/mL
"CC(C)C[C@@H]1NC(=O)[C@@H](CC2CCCCC2)NC(=O)[C@H](CCN)NC(=O)[C@@H](NC(=O)[C@H](CCN)NC(=O)[C@@H](NC(=O)C(CCN)c2cccc(Cl)c2)[C@@H](C)O)CCNC(=O)[C@H]([C@@H](C)O)NC(=O)[C@H](CCN)NC(=O)[C@H](CCN)NC1=O (single isomer, unassigned; isomer 2) [Example 55, 4-amino-2-(3-chlorophenyl) butanoyl polymyxin [D-cyclohexylalanine]-6 nonapeptide. isomer 2]",MIC A. baumanii 053,Acinetobacter baumannii,8 µg/mL
same,MIC A. baumanii 056,Acinetobacter baumannii,4 µg/mL
same,MIC A. baumanii ATCC BAA-747,Acinetobacter baumannii,0.125 µg/mL
same,MIC A. baumanii NCTC 13424,Acinetobacter baumannii,0.25 µg/mL
same,MIC K. pneumoniae 063,Klebsiella pneumoniae,16 µg/mL
same,MIC K. pneumoniae 065,Klebsiella pneumoniae,1 µg/mL
same,MIC K. pneumoniae ATCC 13882,Klebsiella pneumoniae,0.25 µg/mL
same,MIC E. coli 058,Escherichia coli,2 µg/mL
same,MIC E. coli 061,Escherichia coli,16 µg/mL
same,MIC E. coli ATCC 25922,Escherichia coli,0.25 µg/mL
same,MIC E. coli NCTC 9001,Escherichia coli,0.06 µg/mL
same,MIC P. aeruginosa 068,Pseudomonas aeruginosa,4 µg/mL
same,MIC P. aeruginosa 070,Pseudomonas aeruginosa,4 µg/mL
same,MIC P. aeruginosa ATCC 27853,Pseudomonas aeruginosa,0.125 µg/mL
same,MIC P. aeruginosa CCUG 59347,Pseudomonas aeruginosa,0.5 µg/mL
CCCCCCCCc1ccc(C[C@H]2NC(=O)[C@H](CCN)NC(=O)[C@@H](NC(=O)[C@H](CN)NC(=O)[C@@H](NC(=O)C3CNCC(CC(C)C)C3)C(C)O)CCNC(=O)[C@H]([C@@H](C)O)NC(=O)[C@H](CCN)NC(=O)[C@H](CCN)NC(=O)[C@H](CC(C)C)NC2=O)cc1 (stereo partly drawn) [Example 23] (X4-[Thr(3ξ)][Dap][Dab][Dab][X5]L[Dab][Dab]T; lactam 3-C),MIC A. baumanii 053,Acinetobacter baumannii,2 µg/mL
same,MIC A. baumanii 056,Acinetobacter baumannii,1 µg/mL
same,MIC A. baumanii ATCC BAA-747,Acinetobacter baumannii,2 µg/mL
same,MIC K. pneumoniae 062,Klebsiella pneumoniae,4 µg/mL
same,MIC K. pneumoniae 063,Klebsiella pneumoniae,8 µg/mL
same,MIC K. pneumoniae 064,Klebsiella pneumoniae,4 µg/mL
same,MIC K. pneumoniae 065,Klebsiella pneumoniae,2 µg/mL
same,MIC K. pneumoniae 066,Klebsiella pneumoniae,2 µg/mL
same,MIC K. pneumoniae 067,Klebsiella pneumoniae,4 µg/mL
same,MIC K. pneumoniae ATCC 4352,Klebsiella pneumoniae,1 µg/mL
same,MIC E. coli 058,Escherichia coli,2 µg/mL
same,MIC E. coli 059,Escherichia coli,2 µg/mL
same,MIC E. coli 060,Escherichia coli,2 µg/mL
same,MIC E. coli 061,Escherichia coli,2 µg/mL
same,MIC E. coli ATCC 25922,Escherichia coli,2 µg/mL
same,MIC P. aeruginosa 068,Pseudomonas aeruginosa,4 µg/mL
same,MIC P. aeruginosa 070,Pseudomonas aeruginosa,4 µg/mL
same,MIC P. aeruginosa ATCC 27853,Pseudomonas aeruginosa,2 µg/mL
"CC(C)C[C@@H]1NC(=O)[C@@H](CC2CCCCC2)NC(=O)[C@H](CCN)NC(=O)[C@@H](NC(=O)[C@H](CCN)NC(=O)[C@@H](NC(=O)C(CCN)CC2CCCC2)[C@@H](C)O)CCNC(=O)[C@H]([C@@H](C)O)NC(=O)[C@H](CCN)NC(=O)[C@H](CCN)NC1=O (stereo partly drawn) [Example 83, 4-amino-2-(cyclopentylmethyl) butanoyl polymyxin [D-cyclohexylalanine-6]nonapeptide] (X15-T[Dab][Dab][Dab][dCha]L[Dab][Dab]T; lactam 3-C)",MIC A. baumanii 053,Acinetobacter baumannii,>64 µg/mL
same,MIC A. baumanii 056,Acinetobacter baumannii,64 µg/mL
same,MIC A. baumanii ATCC BAA-747,Acinetobacter baumannii,0.125 µg/mL
same,MIC A. baumanii NCTC 13424,Acinetobacter baumannii,0.06 µg/mL
same,MIC K. pneumoniae 063,Klebsiella pneumoniae,16 µg/mL
same,MIC K. pneumoniae 065,Klebsiella pneumoniae,1 µg/mL
same,MIC K. pneumoniae ATCC 13882,Klebsiella pneumoniae,0.25 µg/mL
same,MIC E. coli 058,Escherichia coli,4 µg/mL
same,MIC E. coli 061,Escherichia coli,16 µg/mL
same,MIC E. coli ATCC 25922,Escherichia coli,0.5 µg/mL
same,MIC E. coli NCTC 9001,Escherichia coli,0.06 µg/mL
same,MIC P. aeruginosa 068,Pseudomonas aeruginosa,2 µg/mL
same,MIC P. aeruginosa 070,Pseudomonas aeruginosa,8 µg/mL
same,MIC P. aeruginosa ATCC 27853,Pseudomonas aeruginosa,0.25 µg/mL
same,MIC P. aeruginosa CCUG 59347,Pseudomonas aeruginosa,0.25 µg/mL
"CC(C)C[C@@H]1NC(=O)[C@@H](CC2CCCCC2)NC(=O)[C@H](CCN)NC(=O)[C@@H](NC(=O)[C@H](CCN)NC(=O)[C@@H](NC(=O)C(CCN)C2CCCCC2)[C@@H](C)O)CCNC(=O)[C@H]([C@@H](C)O)NC(=O)[C@H](CCN)NC(=O)[C@H](CCN)NC1=O (single isomer, unassigned; isomer 2) [Example 69, 4-amino-2-cyclohexylbutanoyl polymyxin [D-cyclohexylalanine]-6 nonapeptide isomer 2]",MIC A. baumanii 053,Acinetobacter baumannii,>64 µg/mL
same,MIC A. baumanii 056,Acinetobacter baumannii,64 µg/mL
same,MIC A. baumanii ATCC BAA-747,Acinetobacter baumannii,0.25 µg/mL
same,MIC A. baumanii NCTC 13424,Acinetobacter baumannii,0.06 µg/mL
same,MIC K. pneumoniae 063,Klebsiella pneumoniae,16 µg/mL
same,MIC K. pneumoniae 065,Klebsiella pneumoniae,0.5 µg/mL
same,MIC K. pneumoniae ATCC 4352,Klebsiella pneumoniae,0.25 µg/mL
same,MIC K. pneumoniae ATCC 13882,Klebsiella pneumoniae,0.25 µg/mL
same,MIC E. coli 058,Escherichia coli,4 µg/mL
same,MIC E. coli 061,Escherichia coli,16 µg/mL
same,MIC E. coli ATCC 25922,Escherichia coli,0.06 µg/mL
same,MIC E. coli NCTC 9001,Escherichia coli,0.03 µg/mL
same,MIC P. aeruginosa 068,Pseudomonas aeruginosa,4 µg/mL
same,MIC P. aeruginosa 070,Pseudomonas aeruginosa,8 µg/mL
same,MIC P. aeruginosa ATCC 27853,Pseudomonas aeruginosa,0.25 µg/mL
same,MIC P. aeruginosa CCUG 59347,Pseudomonas aeruginosa,0.5 µg/mL
"CC(C)C[C@@H]1NC(=O)[C@@H](CC2CCCCC2)NC(=O)[C@H](CCN)NC(=O)[C@@H](NC(=O)[C@H](CN)NC(=O)[C@@H](NC(=O)CC(CN)c2ccc(Cl)cc2)C(C)O)CCNC(=O)[C@H]([C@@H](C)O)NC(=O)[C@H](CCN)NC(=O)[C@H](CCN)NC1=O (single isomer, unassigned; isomer 2) [Example 51, 4-amino-3-(4-chlorophenyl) butanoyl L-Thr-L-Dap-polymyxin [D-cyclohexylalanine]-6 heptapeptide. Isomer 2]",MIC A. baumanii ATCC BAA-747,Acinetobacter baumannii,0.5 µg/mL
same,MIC A. baumanii NCTC 13424,Acinetobacter baumannii,0.25 µg/mL
same,MIC K. pneumoniae 065,Klebsiella pneumoniae,0.25 µg/mL
same,MIC K. pneumoniae ATCC 13882,Klebsiella pneumoniae,0.5 µg/mL
same,MIC E. coli 058,Escherichia coli,2 µg/mL
same,MIC E. coli ATCC 25922,Escherichia coli,0.5 µg/mL
same,MIC P. aeruginosa ATCC 27853,Pseudomonas aeruginosa,0.5 µg/mL
same,MIC P. aeruginosa CCUG 59347,Pseudomonas aeruginosa,0.5 µg/mL
"CC(C)C[C@@H]1NC(=O)[C@@H](CC2CCCCC2)NC(=O)[C@H](CCN)NC(=O)[C@@H](NC(=O)[C@H](CN)NC(=O)[C@@H](NC(=O)C(CCN)c2ccccc2Cl)[C@@H](C)O)CCNC(=O)[C@H]([C@@H](C)O)NC(=O)[C@H](CCN)NC(=O)[C@H](CCN)NC1=O (stereo partly drawn) [Example 76, 4-amino-2-(2-chlorophenyl) butanoyl L-Thr-L-Dap-polymyxin [D-cyclohexylalanine]-6 heptapeptide.] (X28-T[Dap][Dab][Dab][dCha]L[Dab][Dab]T; lactam 3-C)",MIC A. baumanii ATCC BAA-747,Acinetobacter baumannii,0.5 µg/mL
same,MIC A. baumanii NCTC 13424,Acinetobacter baumannii,0.5 µg/mL
same,MIC K. pneumoniae ATCC 13882,Klebsiella pneumoniae,0.25 µg/mL
same,MIC E. coli 058,Escherichia coli,8 µg/mL
same,MIC E. coli ATCC 25922,Escherichia coli,0.125 µg/mL
same,MIC P. aeruginosa ATCC 27853,Pseudomonas aeruginosa,0.5 µg/mL
same,MIC P. aeruginosa CCUG 59347,Pseudomonas aeruginosa,0.5 µg/mL
